Measured values published in PubChem BioAssay (NCI).
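Where inhibition never reached the appropriate level, the endpoint shown equals the highest concentration tested. Otherwise, values were interpolated linearly from a five-concentration, 48-hour dose response in 96-well plates. Here, GI50 denotes the concentration required for 50% inhibition of growth. TGI is the concentration that stops growth completely.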

How the values were obtained:
Experiment in all cases: NCI tumour cell line growth inhibition, 48 h
[1] = test system: MOLT-4 leukemia
[2] = test system: DU-145 prostate
[3] = test system: SNB-75 CNS
[4] = test system: SK-MEL-5 melanoma
[5] = test system: A498 renal
[6] = test system: UACC-62 melanoma
[7] = test system: RPMI-8226 leukemia
[8] = test system: SF-268 CNS
[9] = test system: HCT-116 colon
[10] = test system: K-562 leukemia
[11] = test system: COLO 205 colon
[12] = test system: OVCAR-5 ovarian
[13] = test system: IGROV1 ovarian
[14] = test system: M14 melanoma
[15] = test system: SN12C renal
[16] = test system: SW-620 colon
[17] = test system: NCI-H522 lung
[18] = test system: NCI-H226 lung
[19] = test system: BT-549 breast
[20] = test system: HCT-15 colon
[21] = test system: SK-MEL-28 melanoma
[22] = test system: MDA-MB-435
[23] = test system: SK-MEL-2 melanoma
[24] = test system: MCF7 breast
[25] = test system: HOP-92 NSCLC
[26] = test system: U251 CNS
[27] = test system: ACHN renal
[28] = test system: HL-60(TB) leukemia
[29] = test system: HS 578T breast
[30] = test system: OVCAR-3 ovarian
[31] = test system: CAKI-1 renal
[32] = test system: SNB-19 CNS
[33] = test system: SK-OV-3 ovarian
[34] = test system: SF-295 CNS
[35] = test system: HT29 colon
[36] = test system: NCI/ADR-RES ovarian
[37] = test system: HOP-62 NSCLC
[38] = test system: LOX IMVI melanoma
[39] = test system: RXF 393 renal
[40] = test system: SF-539 CNS
[41] = test system: A549 NSCLC
[42] = test system: CCRF-CEM leukemia
[43] = test system: SR leukemia
[44] = test system: PC-3 prostate
[45] = test system: HCC-2998 colon
[46] = test system: EKVX NSCLC
[47] = test system: OVCAR-8 ovarian
[48] = test system: 786-0 renal
[49] = test system: UACC-257 melanoma
[50] = test system: MALME-3M melanoma
[51] = test system: KM12 colon
[52] = test system: UO-31 renal
[53] = test system: OVCAR-4 ovarian
[54] = test system: T-47D breast
[55] = test system: TK-10 renal
[56] = test system: MDA-MB-231 breast
[57] = test system: NCI-H23 lung
[58] = test system: NCI-H460 lung

Q: For `FC(F)(F)CNc1nccc(-c2cnn3ncccc23)n1`, which GI50 [1] is on record?
A: > 25 µM

Q: And the TGI [1]?
A: > 25 µM

Q: What about the GI50 [2] of the same compound?
A: 12 µM

Q: And the TGI [2]?
A: > 25 µM

Q: What about the GI50 [3] of the same compound?
A: 11.3 µM

Q: What about the TGI [3] of the same compound?
A: > 25 µM

Q: What about the GI50 [4] of the same compound?
A: 10.5 µM

Q: What about the TGI [4] of the same compound?
A: > 25 µM

Q: What about the GI50 [5] of the same compound?
A: 3.85 µM

Q: What about the TGI [5] of the same compound?
A: > 22.6 µM

Q: What about the GI50 [6] of the same compound?
A: 10.9 µM

Q: And the TGI [6]?
A: > 25 µM

Q: And the GI50 [7]?
A: > 17.5 µM

Q: And the TGI [7]?
A: > 25 µM

Q: And the GI50 [8]?
A: 8.24 µM

Q: And the TGI [8]?
A: > 25 µM

Q: What about the GI50 [9] of the same compound?
A: 8.3 µM

Q: What about the TGI [9] of the same compound?
A: > 25 µM

Q: And the GI50 [10]?
A: > 25 µM

Q: What about the TGI [10] of the same compound?
A: > 25 µM

Q: What about the GI50 [11] of the same compound?
A: 8.58 µM

Q: What about the TGI [11] of the same compound?
A: > 25 µM

Q: And the GI50 [12]?
A: 9.68 µM

Q: And the TGI [12]?
A: > 25 µM

Q: What about the GI50 [13] of the same compound?
A: 11.9 µM

Q: And the TGI [13]?
A: > 25 µM

Q: And the GI50 [14]?
A: 11.5 µM

Q: And the TGI [14]?
A: > 25 µM

Q: And the GI50 [15]?
A: 14.5 µM

Q: And the TGI [15]?
A: > 25 µM

Q: What about the GI50 [16] of the same compound?
A: 10.9 µM

Q: And the TGI [16]?
A: > 25 µM

Q: And the GI50 [17]?
A: 9.91 µM

Q: And the TGI [17]?
A: > 25 µM

Q: What about the GI50 [18] of the same compound?
A: 12.6 µM

Q: What about the TGI [18] of the same compound?
A: > 25 µM

Q: What about the GI50 [19] of the same compound?
A: > 14.1 µM

Q: And the TGI [19]?
A: > 25 µM

Q: And the GI50 [20]?
A: 16.1 µM

Q: What about the TGI [20] of the same compound?
A: > 25 µM

Q: And the GI50 [21]?
A: 8.13 µM

Q: What about the TGI [21] of the same compound?
A: > 25 µM

Q: And the GI50 [22]?
A: 13.7 µM

Q: What about the TGI [22] of the same compound?
A: > 25 µM

Q: What about the GI50 [23] of the same compound?
A: 8.72 µM

Q: What about the TGI [23] of the same compound?
A: > 25 µM

Q: What about the GI50 [24] of the same compound?
A: 7.3 µM

Q: What about the TGI [24] of the same compound?
A: > 25 µM

Q: And the GI50 [25]?
A: 6.13 µM

Q: What about the TGI [25] of the same compound?
A: > 25 µM

Q: And the GI50 [26]?
A: 9.82 µM

Q: And the TGI [26]?
A: > 25 µM

Q: And the GI50 [27]?
A: 6.41 µM

Q: What about the TGI [27] of the same compound?
A: > 25 µM

Q: What about the GI50 [28] of the same compound?
A: 8.35 µM

Q: And the TGI [28]?
A: > 19.9 µM

Q: And the GI50 [29]?
A: 8.14 µM

Q: What about the TGI [29] of the same compound?
A: > 25 µM

Q: What about the GI50 [30] of the same compound?
A: 10.5 µM

Q: What about the TGI [30] of the same compound?
A: > 25 µM

Q: What about the GI50 [31] of the same compound?
A: 15.9 µM

Q: What about the TGI [31] of the same compound?
A: > 25 µM

Q: And the GI50 [32]?
A: 12.7 µM

Q: And the TGI [32]?
A: > 25 µM

Q: And the GI50 [33]?
A: > 25 µM

Q: What about the TGI [33] of the same compound?
A: > 25 µM

Q: What about the GI50 [34] of the same compound?
A: 11.9 µM

Q: What about the TGI [34] of the same compound?
A: > 25 µM

Q: And the GI50 [35]?
A: 16.3 µM

Q: What about the TGI [35] of the same compound?
A: > 25 µM

Q: And the GI50 [36]?
A: 13.6 µM

Q: What about the TGI [36] of the same compound?
A: > 25 µM

Q: And the GI50 [37]?
A: > 13.6 µM

Q: What about the TGI [37] of the same compound?
A: > 25 µM

Q: What about the GI50 [38] of the same compound?
A: 10.7 µM

Q: And the TGI [38]?
A: > 25 µM

Q: And the GI50 [39]?
A: 4.86 µM

Q: And the TGI [39]?
A: 12.4 µM

Q: What about the GI50 [40] of the same compound?
A: 7.76 µM

Q: And the TGI [40]?
A: > 25 µM

Q: What about the GI50 [41] of the same compound?
A: 10.3 µM

Q: What about the TGI [41] of the same compound?
A: > 25 µM

Q: What about the GI50 [42] of the same compound?
A: > 18.9 µM

Q: What about the TGI [42] of the same compound?
A: > 25 µM

Q: What about the GI50 [43] of the same compound?
A: 6.88 µM

Q: And the TGI [43]?
A: > 25 µM

Q: What about the GI50 [44] of the same compound?
A: 24.5 µM

Q: What about the TGI [44] of the same compound?
A: > 25 µM

Q: And the GI50 [45]?
A: > 25 µM

Q: And the TGI [45]?
A: > 25 µM

Q: And the GI50 [46]?
A: 15.1 µM

Q: What about the TGI [46] of the same compound?
A: > 25 µM

Q: And the GI50 [47]?
A: 8.58 µM

Q: And the TGI [47]?
A: > 25 µM

Q: What about the GI50 [48] of the same compound?
A: 9.67 µM

Q: What about the TGI [48] of the same compound?
A: > 25 µM

Q: And the GI50 [49]?
A: > 19.2 µM

Q: And the TGI [49]?
A: > 25 µM

Q: And the GI50 [50]?
A: > 25 µM

Q: And the TGI [50]?
A: > 25 µM

Q: What about the GI50 [51] of the same compound?
A: 9.54 µM

Q: And the TGI [51]?
A: > 25 µM

Q: And the GI50 [52]?
A: 15.3 µM

Q: And the TGI [52]?
A: > 25 µM

Q: And the GI50 [53]?
A: > 25 µM

Q: And the TGI [53]?
A: > 25 µM

Q: What about the GI50 [54] of the same compound?
A: 8.93 µM

Q: What about the TGI [54] of the same compound?
A: > 25 µM

Q: What about the GI50 [55] of the same compound?
A: 10.3 µM

Q: And the TGI [55]?
A: > 25 µM

Q: And the GI50 [56]?
A: > 25 µM

Q: And the TGI [56]?
A: > 25 µM

Q: And the GI50 [57]?
A: 9.54 µM

Q: And the TGI [57]?
A: > 25 µM

Q: And the GI50 [58]?
A: 10.2 µM

Q: And the TGI [58]?
A: > 25 µM
